# Test results: US20210315869A1, “COMPOUNDS AND METHODS FOR CSK MODULATION AND INDICATIONS THEREFOR” (Plexxikon Inc., priority 2020, published 2021)
# Experiments:
# LCK = target: T1, LCK (Homo sapiens, UniProt P06239); experiment: Human LCK enzymatic assay (AlphaScreen, Poly (Glu4-Tyr) substrate); assay type: biochemical; settings: 100 uM ATP; read-out: LCK IC50 (uM) COFACTOR: 100 uM ATP
# T1 construct: purchased ProQinase
# Procedure: This assay measures the ability of LCK to phosphorylate a biotinylated peptide containing multiple tyrosine residues in vitro. The LCK enzyme was purchased from ProQinase. The biotinylated Poly (Glu4-Tyr) peptide substrate was purchased from Sigma-Aldrich. The LCK enzyme assay was performed using 1 ng LCK enzyme and 30 nM Poly (Glu4-Tyr) substrate in the presence of 25 mM Hepes pH 7.5, 10 mM MnCl2, 50 mM NaCl, 0.01% Tween-20, 0.5 mM DTT, 0.01% BSA, and 100 μM ATP. A 19 μL volume of the above reaction mixture was added to wells of 384-well AlphaPlate (PerkinElmer GA, USA) containing 1 μL of various concentrations of test compound or DMSO vehicle and incubated for 40 minutes at 25° C. 16 wells containing all the components of reaction mixture and 5% DMSO served as high control. 16 wells containing all the components except ATP of reaction mixture and 5% DMSO served as low control. The enzymatic reaction was stopped by the addition of 5 μL stop/detection mixture containing 25 mM Hepes pH 7.5 100 mM EDTA, and 10 μg/mL streptavidin-coated AlphaScreen donor beads (PerkinElmer GA, USA) and incubated for 20 minutes. A 5 μL mixture containing 25 mM Hepes pH 7.5, 100 mM EDTA, and 10 μg/mL anti-phosphotyrosine antibody PY20-coated AlphaScreen acceptor beads (PerkinElmer GA, USA) was added and the plate was incubated for 1 hour at room temperature. The streptavidin donor beads bind to the biotin moiety on the biotinylated Poly (Glu4-Tyr) substrate and the PY20 antibody-coated acceptor beads bind to tyrosine residues on the substrate that have been directly phosphorylated by LCK. Upon excitation of these beads with laser light at 680 nm, singlet oxygen was produced. This singlet oxygen was rapidly quenched, unless the AlphaScreen PY20 acceptor beads are in close proximity, in which case a proximity signal can be measured at 580 nm. In the presence of catalytic activity, there was a very strong proximity signal. Selective LCK inhibitors affect a decrease in this proximity signal through a decrease in phosphorylation of the Poly (Glu4-Tyr) substrate. The percentage of inhibition at individual concentrations relative to high and low controls was calculated. The data were analyzed by using nonlinear regression to generate IC50 values.
# Jurkat/NFAT-RE cells = experiment: NFAT reporter assay (luciferase) in Jurkat/NFAT-RE cells; assay type: cell-based; settings: Homo sapiens, 0.02 μg/mL anti-CD3 antibody OKT3, 3 hours, read-out: Jurkat EC50 (uM) Cell Assay: Reporter Cell Variant: NFAT response element
# Source text: To assess the ability of CSK inhibitors to activate LCK and stimulate signaling downstream of the T-cell receptor, an NFAT reporter assay was used for monitoring of LCK activation in cells through the activation of LCK-dependent signaling through a reporter assay. The Jurkat T-cell cell line was genetically engineered to express a luciferase reporter that is regulated by the NFAT-response element. (Clipstone, N. A., & Crabtree, G. R., Identification of calcineurin as a key signalling enzyme in T-lymphocyte activation, Nature, 357(6380), 695-697, 1992). Stimulation of the T-cell receptor with anti-CD3 antibody increases the expression of the luciferase reporter. To test the ability of CSK inhibitors to stimulate LCK and downstream T-cell signaling, the cells were stimulated with a suboptimal concentration of anti-CD3 ligand, to measure the ability of CSK inhibitors to increase luciferase expression.
# This assay measures the signaling activity downstream of the T-cell receptor, specifically the ability of the NFAT transcription factor to be translocated to the nucleus and induce expression of a firefly luciferase gene. Jurkat/NFAT-RE cells stably expressing the NFAT reporter construct were purchased from BPS Bioscience. The assay was performed by plating 40,000 Jurkat/NFAT-RE cells in a 50 μL volume of serum-free growth media in a 96-well plate. Following an overnight incubation, the cells were treated with CSK inhibitors and 0.02 μg/mL anti-CD3 antibody OKT3 (BD Bioscience) for 3 hours at 37° C. High control wells were stimulated with DMSO and 5 μg/mL OKT3 to maximally stimulate the NFAT reporter, and low control wells were stimulated with DMSO and 0.02 μg/mL OKT3. Following the 3 hour incubation, the cells were assayed for viability using CellTiter-Fluor™ (Promega), and for luciferase expression using ONE-Glo™ (Promega). The ONE-Glo™ signal was normalized to the CellTiter-Fluor™ signal, and the percentage of NFAT activation relative to high and low controls was calculated. The data were analyzed by using nonlinear regression to generate EC50 values. Selective CSK inhibitors affect an increase in luciferase expression in the presence of low level stimulation of the T-cell receptor.
# CSK = target: T2, CSK (Homo sapiens, UniProt P41240); experiment: Human CSK enzymatic assay (AlphaScreen, Poly (Glu4-Tyr) substrate); assay type: biochemical; settings: 100 uM ATP; read-out: CSK IC50 (μM) COFACTOR: 100 uM ATP
# T2 construct: purchased Thermo Fisher
# T2 sequence (P41240 whole entry): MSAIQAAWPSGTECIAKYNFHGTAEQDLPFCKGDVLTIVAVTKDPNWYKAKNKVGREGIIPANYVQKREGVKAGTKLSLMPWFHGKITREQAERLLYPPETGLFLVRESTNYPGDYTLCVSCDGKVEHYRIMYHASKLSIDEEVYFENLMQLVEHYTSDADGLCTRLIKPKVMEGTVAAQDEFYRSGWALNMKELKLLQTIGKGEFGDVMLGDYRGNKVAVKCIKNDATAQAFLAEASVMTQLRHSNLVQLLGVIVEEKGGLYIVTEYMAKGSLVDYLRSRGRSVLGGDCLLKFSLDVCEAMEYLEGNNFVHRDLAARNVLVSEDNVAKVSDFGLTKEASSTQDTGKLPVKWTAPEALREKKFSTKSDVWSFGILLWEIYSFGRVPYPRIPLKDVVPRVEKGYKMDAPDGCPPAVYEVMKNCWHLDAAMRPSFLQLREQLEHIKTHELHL
# Procedure: This assay measures the ability of CSK to phosphorylate a biotinylated peptide containing multiple tyrosine residues in vitro. The CSK enzyme was purchased from Thermo Fisher. The biotinylated Poly (Glu4-Tyr) peptide substrate was purchased from Sigma-Aldrich. The CSK enzyme assay was performed using 0.75 ng CSK enzyme and 30 nM Poly (Glu4-Tyr) substrate in the presence of 25 mM Hepes pH 7.5, 5 mM Mg Acetate, 0.1% NP-40, 1 mM DTT, 0.01% BSA, and 100 μM ATP. A 19 μL volume of the above reaction mixture was added to wells of 384-well AlphaPlate (PerkinElmer GA, USA) containing 1 μL of various concentrations of test compound or DMSO vehicle and incubated for 60 minutes at room temperature. 16 wells containing all the components of reaction mixture and 5% DMSO serve as high control. 16 wells containing all the components except ATP of reaction mixture and 5% DMSO served as low control. The enzymatic reaction was stopped by the addition of 5 μL stop/detection mixture containing 25 mM Hepes pH 7.5 100 mM EDTA, and 5 μg/mL streptavidin-coated AlphaScreen donor beads (PerkinElmer GA, USA) and incubated for 20 minutes. A 5 μL mixture containing 25 mM Hepes pH 7.5, 100 mM EDTA, and 5 μg/mL anti-phosphotyrosine antibody PY20-coated AlphaScreen acceptor beads (PerkinElmer GA, USA) was added and the plate was incubated for 1 hour at room temperature. The streptavidin donor beads bind to the biotin moiety on the biotinylated Poly (Glu4-Tyr) substrate and the PY20 antibody-coated acceptor beads bind to tyrosine residues on the substrate that have been directly phosphorylated by CSK. Upon excitation of these beads with laser light at 680 nm, singlet oxygen was produced. This singlet oxygen was rapidly quenched, unless the AlphaScreen PY20 acceptor beads are in close proximity, in which case a proximity signal can be measured at 580 nm. In the presence of catalytic activity, there was a very strong proximity signal. Selective CSK inhibitors affect a decrease in this proximity signal through a decrease in phosphorylation of the Poly (Glu4-Tyr) substrate. The percentage of inhibition at individual concentrations relative to high and low controls was calculated. The data were analyzed by using nonlinear regression to generate IC50 values. Human LCK enzymatic assay
# T1 sequence (P06239 whole entry): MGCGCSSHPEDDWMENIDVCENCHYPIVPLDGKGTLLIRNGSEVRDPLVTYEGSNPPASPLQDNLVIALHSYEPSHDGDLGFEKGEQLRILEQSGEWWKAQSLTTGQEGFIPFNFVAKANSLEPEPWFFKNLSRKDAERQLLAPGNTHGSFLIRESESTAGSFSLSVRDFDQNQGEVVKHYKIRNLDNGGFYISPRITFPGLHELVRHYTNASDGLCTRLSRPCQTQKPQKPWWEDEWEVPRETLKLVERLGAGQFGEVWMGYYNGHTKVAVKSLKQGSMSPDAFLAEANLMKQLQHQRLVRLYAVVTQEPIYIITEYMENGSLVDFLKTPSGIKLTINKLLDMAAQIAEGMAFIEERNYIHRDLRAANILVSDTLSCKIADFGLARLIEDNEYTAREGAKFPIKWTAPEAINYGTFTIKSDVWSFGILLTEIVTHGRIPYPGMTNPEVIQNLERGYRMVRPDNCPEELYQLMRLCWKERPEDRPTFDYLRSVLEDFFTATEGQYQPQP
SMILES,IC50 (LCK),EC50 (Jurkat/NFAT-RE cells),IC50 (CSK)
"O=c1c(-c2c(F)ccc(NS(=O)(=O)c3cc4scnc4cc3F)c2F)cc2cnc(Nc3ccn(C(F)F)n3)cc2n1C1CC1 [P-0012, N-(3-(1-cyclopropyl-7-((1-(difluoromethyl)-1H-pyrazol-3-yl)amino)-2-oxo-1,2-dihydro-1,6-naphthyndin-3-yl)-2,4-difluorophenyl)-5-fluorobenzo[d]thiazole-6-sulfonamide]",0.5 to 5 µM,0.001 to 0.5 µM,0.001 to 0.5 µM
"O=c1c(-c2c(F)ccc(NS(=O)(=O)c3cc4scnc4cc3F)c2F)cc2cnc(Nc3ccn(C(F)F)n3)cc2n1C1CC(F)(F)C1 [P-0013, N-(3-(1-(3,3-difluorocyclobutyl)-7-((1-(difluoromethyl)-1H-pyrazol-3-yl)amino)-2-oxo-1,2-dihydro-1,6-naphthyridin-3-yl)-2,4-difluorophenyl)-5-fluorobenzo[d]thiazole-6-sulfonamide]",0.5 to 5 µM,0.001 to 0.5 µM,0.001 to 0.5 µM
"O=c1c(-c2c(F)ccc(NS(=O)(=O)c3cc4scnc4cc3F)c2F)cc2cnc(NCCO)cc2n1C1CC1 [P-0014, N-(3-(1-cyclopropyl-7-((2-hydroxyethyl)amino)-2-oxo-1,2-dihydro-1,6-naphthyridin-3-yl)-2,4-difluorophenyl)-5-fluorobenzo[d]thiazole-6-sulfonamide]",5 to 100 µM,0.5 to 5 µM,0.001 to 0.5 µM
"O=c1c(-c2c(F)ccc(NS(=O)(=O)c3cc4scnc4cc3F)c2F)cc2cnc(NCCO)cc2n1C1CC(F)(F)C1 [P-0015, N-(3-(1-(3,3-difluorocyclobutyl)-7-((2-hydroxyethyl)amino)-2-oxo-1,2-dihydro-1,6-naphthyridin-3-yl)-2,4-difluorophenyl)-5-fluorobenzo[d]thiazole-6-sulfonamide]",5 to 100 µM,0.5 to 5 µM,0.5 to 5 µM
"CC(F)(F)Cn1c(=O)c(-c2c(F)ccc(NS(=O)(=O)c3cc4scnc4cc3F)c2F)cc2cnc(N)cc21 [P-0016, N-(3-(7-amino-1-(2,2-difluoropropyl)-2-oxo-1,2-dihydro-1,6-naphthyridin-3-yl)-2,4-difluorophenyl)-5-fluorobenzo[d]thiazole-6-sulfonamide]",5 to 100 µM,0.001 to 0.5 µM,0.001 to 0.5 µM
"Nc1cc2c(cn1)cc(-c1c(F)ccc(NS(=O)(=O)c3cc4scnc4cc3F)c1F)c(=O)n2CC(F)(F)C1CC1 [P-0017, N-(3-(7-amino-1-(2-cyclopropyl-2,2-difluoroethyl)-2-oxo-1,2-dihydro-1,6-naphthyridin-3-yl)-2,4-difluorophenyl)-5-fluorobenzo[d]thiazole-6-sulfonnamide]",5 to 100 µM,0.001 to 0.5 µM,0.001 to 0.5 µM
"Nc1cc2c(cn1)cc(-c1c(F)ccc(NS(=O)(=O)c3cc4scnc4cc3F)c1F)c(=O)n2CC1CC(F)(F)C1 [P-0018, N-(3-(7-amino-1-((3,3-difluorocyclobutyl)methyl)-2-oxo-1,2-dihydro-1,6-naphthyridin-3-yl)-2,4-difluorophenyl)-5-fluorobenzo[d]thiazole-6-sulfonamide]",5 to 100 µM,0.001 to 0.5 µM,0.001 to 0.5 µM
"Nc1cc2c(cn1)cc(-c1c(F)ccc(NS(=O)(=O)c3ccc4ncsc4c3F)c1F)c(=O)n2CC(F)F [P-0019, N-(3-(7-amino-1-(2,2-difluoroethyl)-2-oxo-1,2-dihydro-1,6-naphthyridin-3-yl)-2,4-difluorophenyl)-7-fluorobenzo[d]thiazole-6-sulfonamide]",0.5 to 5 µM,0.001 to 0.5 µM,0.001 to 0.5 µM
"CC(F)(F)Cn1c(=O)c(-c2c(F)ccc(NS(=O)(=O)c3ccc4ncsc4c3F)c2F)cc2cnc(N)cc21 [P-0020, N-(3-(7-amino-1-(2,2-difluoropropyl)-2-oxo-1,2-dihydro-1,6-naphthyridin-3-yl)-2,4-difluorophenyl)-7-fluorobenzo[d]thiazole-6-sulfonamide]",0.5 to 5 µM,0.001 to 0.5 µM,0.001 to 0.5 µM
"Nc1cc2c(cn1)cc(-c1c(F)ccc(NS(=O)(=O)c3cc4scnc4cc3F)c1F)c(=O)n2CC(F)(F)F [P-0021, N-(3-(7-amino-2-oxo-1-(2,2,2-trifluoroethyl)-1,2-dihydro-1,6-naphthyridin-3-yl)-2,4-difluorophenyl)-5-fluorobenzo[d]thiazole-6-sulfonamide]",0.5 to 5 µM,0.001 to 0.5 µM,0.001 to 0.5 µM
"Nc1cc2c(cn1)cc(-c1c(F)ccc(NS(=O)(=O)c3ccc4ncsc4c3F)c1F)c(=O)n2CC(F)(F)F [P-0022, N-(3-(7-amino-2-oxo-1-(2,2,2-trifluoroethyl)-1,2-dihydro-1,6-naphthyridin-3-yl)-2,4-difluorophenyl)-7-fluorobenzo[d]thiazole-6-sulfonamide]",0.5 to 5 µM,0.001 to 0.5 µM,0.001 to 0.5 µM
"Nc1cc2c(cn1)cc(-c1c(F)ccc(NS(=O)(=O)c3ccc4ncsc4c3)c1F)c(=O)n2CC(F)F [P-0023, N-(3-(7-amino-1-(2,2-difluoroethyl)-2-oxo-1,2-dihydro-1,6-naphthyridin-3-yl)-2,4-difluorophenyl)benzo[d]thiazole-6-sulfonamide]",0.5 to 5 µM,0.001 to 0.5 µM,0.001 to 0.5 µM
"Nc1cc2c(cn1)cc(-c1c(F)ccc(NS(=O)(=O)c3cc4scnc4cc3F)c1F)c(=O)n2C1CCC1 [P-0024, N-(3-(7-amino-1-cyclobutyl-2-oxo-1,2-dihydro-1,6-naphthyridin-3-yl)-2,4-difluorophenyl)-5-fluorobenzo[d]thiazole-6-sulfonamide]",5 to 100 µM,0.001 to 0.5 µM,0.001 to 0.5 µM
